Test results from the supplement of paper PMC7244745.
Counter-ions that a name gives are not always drawn. ± gives the uncertainty stated by the source.

Tests used:
[1] = system: Klebsiella pneumoniae ATCC 13882; experiment: final pH-related absorbance (A557-A630) after 24 h (absorbance units); higher = more ureolysis; extreme values may be limits of the assay
Method: (§1)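 Klebsiella pneumoniae ATCC 13882 (start OD600 0.05) grown in M9U medium with 40 mM urea and phenol red plus inhibitor, in triplicate in 96-well plates. A557 and OD630 were read every 15 min for 24 h. Ureolysis was followed as the pH-related A557-A630: onset time, Gompertz-fit rate and final value. Growth was followed as OD630.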

[2] = system: Klebsiella pneumoniae ATCC 13882; experiment: rate of pH (A557-A630) increase, Gompertz fit (10^-4 s-1); higher = faster ureolysis; extreme values may be limits of the assay
Method: as §1

[3] = system: Klebsiella pneumoniae ATCC 13882; experiment: onset of ureolytic pH increase; higher = more delayed ureolysis (inhibition)
Method: as §1

[4] = system: Klebsiella pneumoniae ATCC 13882; experiment: final OD630 (growth) after 24 h; higher = more bacterial growth; extreme values may be limits of the assay
Method: as §1

SMILES | final pH-related absorbance ([1]; 0.1 mM) | final pH-related absorbance ([1]; 1 mM) | final pH-related absorbance ([1]; 10 mM) | rate of pH ([2]; 0.1 mM) | rate of pH ([2]; 1 mM) | rate of pH ([2]; 10 mM) | onset of ureolytic pH increase ([3]; 0.1 mM) [h] | onset of ureolytic pH increase ([3]; 1 mM) [h] | onset of ureolytic pH increase ([3]; 10 mM) | final OD630 ([4]; 0.1 mM) | final OD630 ([4]; 1 mM) | final OD630 ([4]; 10 mM) | further results
NC(=O)NC1NC(=O)NC1=O (centres undefined) [Allantoin] |  |  |  |  |  |  |  |  |  |  |  |  | final pH-related absorbance ([1]; 0.033 mM): 0.231 ± 0.0095; final pH-related absorbance ([1]; 0.33 mM): 0.216 ± 0.003; final pH-related absorbance ([1]; 3.33 mM): 0.222 ± 0.0053; rate of pH ([2]; 0.033 mM): 1.66 ± 0.032; rate of pH ([2]; 0.33 mM): 1.718 ± 0.017; rate of pH ([2]; 3.33 mM): 1.68 ± 0.02; onset of ureolytic pH increase ([3]; 0.033 mM): 9.624 ± 0.085 h; onset of ureolytic pH increase ([3]; 0.33 mM): 9.619 ± 0.0733 h; onset of ureolytic pH increase ([3]; 3.33 mM): 10 ± 0.117 h; final OD630 ([4]; 0.033 mM): 0.525 ± 0.0093; final OD630 ([4]; 0.33 mM): 0.507 ± 0.0058; final OD630 ([4]; 3.33 mM): 0.495 ± 0.0081
C=CCNC(N)=S [Allylthiourea] | 0.159 ± 0.0052 | 0.154 ± 0.0052 | 0.135 ± 0.0034 | 1.47 ± 0.046 | 1.454 ± 0.0015 | 1.383 ± 0.0037 | 9.392 ± 0.0683 | 9.93 ± 0.483 | 12.93 ± 0.123 h | 0.417 ± 0.013 | 0.397 ± 0.015 | 0.366 ± 0.0047 | 
OB(O)O [Boric acid] | 0.409 ± 0.0087 | 0.418 ± 0.018 | 0 | 1.62 ± 0.03 | 1.48 ± 0.2 | 0 | 9.85 ± 0.103 | 10.3 ± 0.567 | > 15 h | 0.437 ± 0.0082 | 0.432 ± 0.0018 | 0.297 ± 0.0064 | 
S=C=S [Carbon disulfide] |  |  |  |  |  |  |  |  |  |  |  |  | final pH-related absorbance ([1]; 0.0285 mM): 0.169 ± 0.0022; final pH-related absorbance ([1]; 0.285 mM): 0.175 ± 0.0006; final pH-related absorbance ([1]; 2.85 mM): 0.175 ± 0.0058; rate of pH ([2]; 0.0285 mM): 1.547 ± 0.011; rate of pH ([2]; 0.285 mM): 1.537 ± 0.0055; rate of pH ([2]; 2.85 mM): 1.561 ± 0.0093; onset of ureolytic pH increase ([3]; 0.0285 mM): 10.26 ± 0.0115 h; onset of ureolytic pH increase ([3]; 0.285 mM): 10.2 ± 0.0433 h; onset of ureolytic pH increase ([3]; 2.85 mM): 10.24 ± 0.07 h; final OD630 ([4]; 0.0285 mM): 0.416 ± 0.0039; final OD630 ([4]; 0.285 mM): 0.428 ± 0.0051; final OD630 ([4]; 2.85 mM): 0.419 ± 0.0062
CN(CC(=O)O)C(=N)N [Creatine monohydrate] |  |  |  |  |  |  |  |  |  |  |  |  | final pH-related absorbance ([1]; 0.0026 mM): 0.217 ± 0.0008; final pH-related absorbance ([1]; 0.026 mM): 0.22 ± 0.0025; final pH-related absorbance ([1]; 0.26 mM): 0.22 ± 0.0028; rate of pH ([2]; 0.0026 mM): 1.73 ± 0.023; rate of pH ([2]; 0.026 mM): 1.73 ± 0.059; rate of pH ([2]; 0.26 mM): 1.78 ± 0.032; onset of ureolytic pH increase ([3]; 0.0026 mM): 9.537 ± 0.0367 h; onset of ureolytic pH increase ([3]; 0.026 mM): 9.59 ± 0.147 h; onset of ureolytic pH increase ([3]; 0.26 mM): 9.419 ± 0.0783 h; final OD630 ([4]; 0.0026 mM): 0.503 ± 0.012; final OD630 ([4]; 0.026 mM): 0.496 ± 0.0032; final OD630 ([4]; 0.26 mM): 0.497 ± 0.0049
CN1CC(=O)NC1=N [Creatinine] | 0.146 ± 0.0004 | 0.158 ± 0.0061 | 0.157 ± 0.005 | 2.186 ± 0.011 | 2.17 ± 0.023 | 2.19 ± 0.038 | 9.588 ± 0.07 | 9.675 ± 0.0283 | 9.58 ± 0.14 h | 0.505 ± 0.0042 | 0.495 ± 0.013 | 0.517 ± 0.0028 | 
NCCS [Cysteamine hydrochloride] | 0.256 ± 0.0053 | 0.246 ± 0.0058 | 0.097 ± 0.0002 | 1.44 ± 0.07 | 0.893 ± 0.012 | 0.736 ± 0.0043 | 8.51 ± 0.103 | 10.12 ± 0.02 | 15.19 ± 0.0183 h | 0.5 ± 0.0053 | 0.487 ± 0.0016 | 0.447 ± 0.0027 | 
O=C(O)CN(CCN(CC(=O)O)CC(=O)O)CCN(CC(=O)O)CC(=O)O [Diethylenetriaminepentaacetic acid] |  |  |  |  |  |  |  |  |  |  |  |  | final pH-related absorbance ([1]; 0.004 mM): 0.196 ± 0.016; final pH-related absorbance ([1]; 0.036 mM): 0; final pH-related absorbance ([1]; 0.364 mM): 0; rate of pH ([2]; 0.004 mM): 2.08 ± 0.049; rate of pH ([2]; 0.036 mM): 0; rate of pH ([2]; 0.364 mM): 0; onset of ureolytic pH increase ([3]; 0.004 mM): 9.47 ± 0.183 h; onset of ureolytic pH increase ([3]; 0.036 mM): > 15 h; onset of ureolytic pH increase ([3]; 0.364 mM): > 15 h; final OD630 ([4]; 0.004 mM): 0.439 ± 0.001; final OD630 ([4]; 0.036 mM): 0.311 ± 0.003; final OD630 ([4]; 0.364 mM): 0.21 ± 0.005
CC(=NO)C(C)=NO [Dimethylglyoxime] |  |  |  |  |  |  |  |  |  |  |  |  | final pH-related absorbance ([1]; 0.03 mM): 0.183 ± 0.0026; final pH-related absorbance ([1]; 0.3 mM): 0.142 ± 0.032; final pH-related absorbance ([1]; 3.01 mM): 0.466 ± 0.023; rate of pH ([2]; 0.03 mM): 2.093 ± 0.018; rate of pH ([2]; 0.3 mM): 1.96 ± 0.3; rate of pH ([2]; 3.01 mM): 0.0904 ± 0.0046; onset of ureolytic pH increase ([3]; 0.03 mM): 9.565 ± 0.012 h; onset of ureolytic pH increase ([3]; 0.3 mM): 12.8 ± 0.6 h; onset of ureolytic pH increase ([3]; 3.01 mM): 0 min; final OD630 ([4]; 0.03 mM): 0.443 ± 0.007; final OD630 ([4]; 0.3 mM): 0.377 ± 0.017; final OD630 ([4]; 3.01 mM): 0
C=C(CC)C(=O)c1ccc(OCC(=O)O)c(Cl)c1Cl [Ethacrynic acid] | 0.139 ± 0.0023 | 0.128 ± 0.018 | 0.294 ± 0.0059 | 1.57 ± 0.073 | 1.49 ± 0.037 | 0.033 ± 0.0006 | 11.62 ± 0.06 | 12.6 ± 1.67 | 0 min | 0.437 ± 0.0002 | 0.44 ± 0.0048 | 0 | 
CC(O)(P(=O)(O)O)P(=O)(O)O [Etidronic acid monohydrate] | 0.323 ± 0.0087 | 0.28 ± 0.005 | 0 | 1.63 ± 0.035 | 1.597 ± 0.013 | 0 | 11.23 ± 0.0383 | 11.2 ± 0.0417 | > 15 h | 0.432 ± 0.0054 | 0.443 ± 0.0026 | 0 | 
NC=O [Formamide] | 0.168 ± 0.021 | 0.172 ± 0.027 | 0.165 ± 0.021 | 2.01 ± 0.1 | 2.24 ± 0.1 | 2.188 ± 0.02 | 9.17 ± 0.367 | 9.33 ± 0.25 | 9.53 ± 0.125 h | 0.513 ± 0.0092 | 0.512 ± 0.0096 | 0.513 ± 0.008 | 
O=C(O)c1cc(O)c(O)c(O)c1 [Gallic acid monohydrate] |  |  |  |  |  |  |  |  |  |  |  |  | final pH-related absorbance ([1]; 0.056 mM): 0.19 ± 0.0003; final pH-related absorbance ([1]; 0.56 mM): 0.191 ± 0.028; rate of pH ([2]; 0.056 mM): 2.0688 ± 0.0018; rate of pH ([2]; 0.56 mM): 1.8 ± 0.028; onset of ureolytic pH increase ([3]; 0.056 mM): 9.382 ± 0.0617 h; onset of ureolytic pH increase ([3]; 0.56 mM): 10.3 ± 0.3 h; final OD630 ([4]; 0.056 mM): 0.454 ± 0.007; final OD630 ([4]; 0.56 mM): 0.45 ± 0.003
N=C(N)N [Guanidine hydrochloride] | 0.249 ± 0.007 | 0.27 ± 0.011 | 0.286 ± 0.009 | 1.94 ± 0.086 | 2.02 ± 0.066 | 2.03 ± 0.17 | 7.22 ± 0.107 | 7.08 ± 0.095 | 7.26 ± 0.2 h | 0.498 ± 0.006 | 0.505 ± 0.006 | 0.503 ± 0.004 | 
Oc1ccc(O)cc1 [Hydroquinone] | 0.155 ± 0.0064 | 0.157 ± 0.0044 |  | 1.78 ± 0.19 | 1.58 ± 0.096 |  | 11.3 ± 0.118 | 11.7 ± 0.667 |  | 0.408 ± 0.021 | 0.423 ± 0.038 |  | 
NC(=O)NO [Hydroxyurea] | 0.258 ± 0.007 | 0.198 ± 0.029 | 0 | 1.89 ± 0.32 | 1.01 ± 0.031 | 0 | 7.27 ± 0.108 | 7.36 ± 0.417 | > 15 h | 0.483 ± 0.006 | 0.452 ± 0.031 | 0.262 ± 0.002 | 
